Reference: patent publication US6472198B1, “Slow release substrates for driving microbial transformations of environmental contaminants” (The State of Oregon Acting by and through the State Board …, priority 1998, dated 2002)

Key:
[1] = Abiotic hydrolysis of TBOS and TKEBS in sterilized pH buffered solutions; assay type: physicochemical
[2] = system: Pt. Mugu groundwater and aquifer solids microcosm; experiment: Anaerobic reductive dechlorination of TCE in Pt. Mugu microcosm amended with TBOS; assay type: cell-based
[3] = Solubility in water (statement); assay type: physicochemical
[4] = Hydrolysis period of slow release compounds in bioremediation studies; assay type: physicochemical; conditions: TBOS to 1-butanol, TPOS to phenol
Description: These alcohols can then be used by the microorganisms to cometabolize halogenated organics, such as TCE, for example. As discussed in the Examples below, the decrease in TBOS in a poisoned (killed) control compared similarly to the nonpoisoned (live) microbially active system under anaerobic conditions. Microbial activity was indicated by the production of acetate, butanol, butyrate, and hydrogen in the live microcosms, and the lack of production in the poisoned control. […] Thus, TBOS is not directly degraded, but is first hydrolyzed by reactions with water to form 1-butanol, which can then be used to drive the aerobic cometabolism of chlorinated organics.

[5] = pH 7.8 (site groundwater), 30 °C, 10 mg/L

CCCCO[Si](OCCCC)(OCCCC)OCCCC [No. 2, Tetrabutoxysilane]
1-butanol formed per TBOS hydrolyzed ([1]; 30 °C, 10 mg/L): 4 moles of 1-butanol per mole of TBOS
rate of transformation at pH 5 and pH 9 compared to pH 7 ([1]; 30 °C, 10 mg/L): increased by a factor of two
Rates of Hydrolysis Based on 1-butanol production ([1]; pH 5.0, 30 °C, 10 mg/L): 0.19 µmol/day
Rates of Hydrolysis Based on TBOS degradation ([1]; pH 5.0, 30 °C, 10 mg/L): -0.160 µmol/day
effect of temperature on hydrolysis ([1]; pH 7, 10 mg/L, 15 °C vs 30 °C): Very little increase
Rates of Hydrolysis Based on 1-butanol production ([1]; pH 7.0, 15 °C, 10 mg/L): 0.08 µmol/day
Rates of Hydrolysis Based on TBOS degradation ([1]; pH 7.0, 15 °C, 10 mg/L): -0.060 µmol/day
Rates of Hydrolysis Based on 1-butanol production ([1]; pH 7.0, 30 °C, 10 mg/L): 0.08 µmol/day
Rates of Hydrolysis Based on TBOS degradation ([1]; pH 7.0, 30 °C, 10 mg/L): -0.062 µmol/day
factor of increase in rate of hydrolysis on ten-fold increase in concentration ([1]; pH 7, 30 °C, 10 mg/L to 100 mg/L): 4
Rates of Hydrolysis Based on 1-butanol production ([1]; pH 7.0, 30 °C, 100 mg/L): 0.26 µmol/day
Rates of Hydrolysis Based on TBOS degradation ([1]; pH 7.0, 30 °C, 100 mg/L): -0.208 µmol/day
Rates of Hydrolysis Based on 1-butanol production [1, 5]: 0.16 µmol/day
Rates of Hydrolysis Based on TBOS degradation [1, 5]: -0.110 µmol/day
Rates of Hydrolysis Based on 1-butanol production ([1]; pH 9.0, 30 °C, 10 mg/L): 0.22 µmol/day
Rates of Hydrolysis Based on TBOS degradation ([1]; pH 9.0, 30 °C, 10 mg/L): -0.151 µmol/day
duration of TCE transformation resulting from addition of only TBOS ([2]; TBOS 1 g/L added at start of test): over 500 days
persistence of TBOS in the microcosm ([2]; anaerobic Pt. Mugu microcosm, TBOS 1 g/L): over 450 days
solubility [3]: very low
period over which hydrolysis to the alcohol occurs [4]: two month
